Results taken from US10961539B2, “Promoter system inducing expression by 3-hydroxypropionic acid and method for biological production of 3-hydroxypropionic acid using same” (NOROO IC Co., Ltd., priority 2015, dated 2021).

Experiments:
[1] = test system: 3hpdh, 3hibdhIV, and mmsadh; experiment: Inducer specificity of gene expression (FIGS. 4 and 5); type: cell-based, Pseudomonas denitrificans; details: for amplification of the genes 3hpdh, 3hibdhIV and mmsadh by the compound: FIGS. 4 and 5; for inducer of expression of mmsadh and 3hibdhIV: FIG. 4
3hpdh = experiment: RT-PCR relative mRNA level of 3-HP catabolic gene; details: FIG. 5

| Compound | amplification of the genes 3hpdh, 3hibdhIV and mmsadh by the compound [1] | inducer of expression of mmsadh and 3hibdhIV [1] | inducer of expression of 3hpdH (3hpdh) |
| --- | --- | --- | --- |
| OCCCO [1,3-propanediol] | not induced | – | – |
| CC(O)C(C)O (centres unmarked) [2,3-butandiol] | not induced | – | – |
| CC(O)CC(=O)O (centres unmarked) [3-HB, 3-hydroxybutyrate] | amplified | acts as an inducer | acts as an inducer |
| CC(CO)C(=O)O (centres unmarked) [3HIB, 3-hydroxyisobutyrate] | amplified | acts as an inducer | acts as an inducer |
| CC(C)[C@H](N)C(=O)O [L-valine] | induced | acts as an inducer | acts as an inducer |
| CC(=O)O [acetic acid] | not induced | – | – |
| CC(O)C(=O)O (centres unmarked) [lactic acid] | not induced | – | – |
| CCC(=O)O [propionic acid] | not induced | – | – |
